Experiment [1] concerns the target T1, thymidine phosphorylase obtained from human placenta (Homo sapiens, UniProt P19971).
T1 construct: thymidine phosphorylase obtained from human placenta in a highly purified form; from tissue; host or cells: human placenta
T1 sequence (P19971 11-482): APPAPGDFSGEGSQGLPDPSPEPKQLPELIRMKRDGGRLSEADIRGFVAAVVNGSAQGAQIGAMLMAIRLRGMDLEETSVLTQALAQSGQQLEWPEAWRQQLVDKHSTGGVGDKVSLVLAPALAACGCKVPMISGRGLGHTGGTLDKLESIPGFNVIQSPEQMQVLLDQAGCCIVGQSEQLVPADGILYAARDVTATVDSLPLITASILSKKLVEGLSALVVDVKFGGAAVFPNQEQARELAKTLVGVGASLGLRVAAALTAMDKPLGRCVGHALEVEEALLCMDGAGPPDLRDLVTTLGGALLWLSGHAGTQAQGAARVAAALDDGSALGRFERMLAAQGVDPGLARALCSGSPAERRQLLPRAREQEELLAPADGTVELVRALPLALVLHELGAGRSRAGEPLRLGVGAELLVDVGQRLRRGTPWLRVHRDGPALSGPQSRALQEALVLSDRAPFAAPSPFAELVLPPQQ
The experiment is described as follows: Test 1 (Thymidine Phosphorylase Inhibiting Effects). Format: biochemical.

Experiment [2] has as its system human colon cancer strain Co-3. Kind of experiment: Test 3 (Metastasis Inhibiting Effects on Liver Metastasis Model). The settings on record: oral; for Number of metastasized mice: 6 courses (5 days on, 2 days off), control 4/6; for Metastasis inhibition rate (%): liver metastasis, 6 courses, vs control. Format: in vivo, SPF KSN-nu/nu male mouse; human colon cancer. Here is the method: About 100 mm^3 of human colon cancer strain Co-3 were transplanted to the cecum of each SPF KSN-nu/nu male mouse (seven weeks old). Two weeks after the transplant, a primary carcinoma lesion was removed by surgically cutting off the cecum. […] The administration was conducted for 6 courses, each consisting of administration of 5 straight days followed by a suspension of administration for 2 days. To mice in a control, only 0.5% (w/v) hydroxypropyl methylcellulose solution was orally administered. On the day following the completion of the administration, each mouse was sacrificed and metastasis to the liver was determined based on autopsy.

Experiment [3] relates to TMK-1 (human gastric cancer) cells. The experiment is described as follows: Test 2 (Effects of Life Prolongation on Liver Metastasis Model). In kind it is in vivo, BALB/c-nu/nu male mice; human gastric cancer cells. The settings on record: oral, everyday for 42 days; for Average # of survival time: control 63.4 days; for ILS (%) (increase of life span): vs control, 120 days observation. On the procedure: Effects of life prolongation were assessed using a liver metastasis model system consisting of BALB/c-nu/nu male mice (seven weeks old) each of which had been transplanted in the spleen thereof with 1×10^6 cells/mouse of TMK-1 (human gastric cancer) cells.
Specific experimental procedures were carried out by modifying the method proposed by Morikawa et al. in Cancer Research, 48, 1943-1948 (1988). Described specifically, cells which had been cultured in vitro were collected with 0.25%(w/v) trypsin-0.2%(w/v) EDTA and were then washed with a physiological phosphate buffer. The cells were next counted, followed by dilution to 1×10^6 cells/50 μl. Under anesthetization with 30 mg/kg of "Nembutal", each of the mice was incised at its left abdominal region and the spleen was then pulled out. The cell suspension of 10^6 cells/50 μl which had been prepared above was injected in an amount of 50 μl into the spleen by a syringe fitted with a 28-gauge injection needle. After the mouse was left over for 2 minutes, the blood vessel to the spleen was tied at two positions by ligating clips, respectively, and the spleen was cut off. The excised abdominal region was closed with a suturing stapler. Compound No. 29 of the present invention, in a form dissolved in distilled water, was orally administered everyday for 42 days from the day following the transplant. Using the increase of life span (ILS%) of a control as a reference, an assessment was conducted by observing the mouse for 120 days after the transplant of the cells to confirm its survival. The increase of life span (ILS%) was calculated in accordance with the following formula. [formula]

The mark [4] stands for this setting: inhibition of [6-^3H]thymine formation from [6-^3H]thymidine, 37° C., 5 minutes, pH 7.4, read-out: IC50.

Structures can show the parent of a compound that is named as a salt. Where two headings read alike, the source gives them in different places.

Broadly, the IC50 is the concentration needed to halve the response being measured. In the case of `N#Cc1ccc(O)[nH]c1=O` [3-Cyano-2,6-dihydroxypyridine, reference compound], the IC50 in experiment [1] (setting [4]) is 130 µM.
Same read-out and setting: next, `Cc1cn(COCCO)c(=O)[nH]c1=O` [Acyclothymidine, reference compound]: greater than 1000 µM; `O=c1[nH]c(CN2CCCC2)c(Cl)c(=O)[nH]1` [Compound 1, 5-chloro-6-(1-pyrrolidinylmethyl)uracil]: 2.2 µM.
As for `O=c1[nH]c(CN2CCCC2)c(Br)c(=O)[nH]1` [Compound 2, 5-bromo-6-(1-pyrrolidinylmethyl)uracil], the IC50 in experiment [1] (setting [4]) came out at 0.51 µM.
Take `O=c1[nH]c(CN2CCCC2)c(I)c(=O)[nH]1` [Compound 3]: the 50% inhibitory concentration (IC50) in experiment [1] (setting [4]) is 1.3 µM.
Still for that read-out and setting: next, `O=c1[nH]c(CN2CCC2)c(Cl)c(=O)[nH]1` [Compound 6, 5-chloro-6-(1-azetidinylmethyl)uracil]: 2.6 µM.
In experiment [1], `Cn1ccn(Cc2[nH]c(=O)[nH]c(=O)c2Cl)c1=N` [Compound 20] gave an IC50 of 0.24 µM.
For the molecule `N=C1CCCN1Cc1[nH]c(=O)[nH]c(=O)c1Cl` [Compound 29, 5-chloro-6-(1-(2-iminopyrrolidinyl)-methyl)uracil hydrochloride], the “Number of metastasized mice” value is on record as 2/6 in experiment [2] (18.4 mg/kg/day) and 1/6 in experiment [2] (36.9 mg/kg/day). Also, the “Metastasis inhibition rate (%)” value in experiment [2] (18.4 mg/kg/day) worked out at 50%; in experiment [2] (36.9 mg/kg/day) it was 75%. Also, the “Average # of survival time” value in experiment [3] (50 mg/kg/day, N = 8) stood at 88.5 days; in experiment [3] (100 mg/kg/day, N = 9), 90.8 days. Also, the “ILS (%) (increase of life span)” value in experiment [3] (50 mg/kg/day) was found to be 39.6%; in experiment [3] (100 mg/kg/day) it was 43.2%.
As for `Cc1c(CN2CCCC2=N)[nH]c(=O)[nH]c1=O` [Compound 32], the IC50 in experiment [1] amounted to 0.12 µM.
In experiment [1], `N#Cc1c(CN2CCCC2=N)[nH]c(=O)[nH]c1=O` [Compound 33, 5-cyano-6-(1-(2-iminopyrrolidinyl)methyl)uracil] yielded an IC50 of 0.017 µM.
In the case of `CN1CCN(Cc2[nH]c(=O)[nH]c(=O)c2Cl)C1=N` [Compound 34], the IC50 in experiment [1] turned out to be 0.046 µM.
Same read-out and setting: in the case of `N=C1NCCN1Cc1[nH]c(=O)[nH]c(=O)c1Br` [Compound 48, 5-bromo-6-(1-(2-iminoimidazolidinyl)methyl) uracil] it was 0.03 µM.
On to `O=c1[nH]c(CN2C=NCC2)c(Cl)c(=O)[nH]1` [Compound 50, 5-chloro-6-(2-imidazolin-1-ylmethyl)-uracil hydrochloride], for which the IC50 in experiment [1] (setting [4]) was 1.2 µM.
The same measure, in the same setting: next, `O=c1[nH]c(Cn2ccnc2)c(Cl)c(=O)[nH]1` [Compound 51, 5-chloro-6-(1-imidazolylmethyl)uracil hydrochloride]: 1 µM; `N#Cc1c(CSC(=N)N)[nH]c(=O)[nH]c1=O` [Compound 56, 2-(5-cyanouracil-6-ylmethyl)isothiourea hydrochloride]: 0.1 µM; `CNC(=N)SCc1[nH]c(=O)[nH]c(=O)c1Cl` [Compound 57]: 0.15 µM.
For `N=C(N)NCc1[nH]c(=O)[nH]c(=O)c1Cl` [Compound 68, 5-chloro-6-(1-guanidino)methyluracil hydrochloride], the 50% inhibitory concentration (IC50) in experiment [1] (setting [4]) worked out at 0.27 µM.
As to `CC(=N)NCc1[nH]c(=O)[nH]c(=O)c1Cl` [Compound 73, N-(5-chlorouracil-6-ylmethyl)-acetamidine hydrochloride], the IC50 in experiment [1] (setting [4]) worked out at 1.5 µM.

These data come from US6255314A, “Cancerous metastasis inhibitors containing uracil derivatives” (Taiho Charmaceutical Co., Ltd., priority 1996, dated 2001).
